Test results reported in patent US20070287848A1, “Silicon Compound Containi-Electron Conjugated-System Molecule and Process for Producing the Same” (priority 2004, published 2007).
One block for each compound: values may come before it.

Key:
Solubility in THF = type: physicochemical; details: in 1 ml of THF
Solubility in toluene = type: physicochemical; details: in 1 ml of toluene; for solubility relative to that of Th4-SiCl3: ratio to Th4-SiCl3

Compound: CCCCCCCCCCCCCCCCCCc1ccc(-c2ccc(-c3ccc([Si](Cl)(Cl)Cl)cc3)cc2)cc1 [C18-P3-SiCl3]
solubility relative to that of P3-SiCl3 (Solubility in THF; ratio to P3-SiCl3): about 2.8 times

Compound: CCCCCCCCCCCCCCCCCCc1ccc(-c2ccc(-c3ccc(-c4ccc([Si](OCC)(OCC)OCC)s4)s3)s2)s1 [C18-Th4-Si(OC2H5)3]
solubility relative to that of Th4-SiCl3 (Solubility in toluene): about 10 times

Compound: CCCCCCCCCCCCCCCCCCc1ccc(-c2ccc(-c3ccc(-c4ccc([Si](OC)(OC)OC)s4)s3)s2)s1 [C18-Th4-Si(OCH3)3]
solubility relative to that of Th4-SiCl3 (Solubility in toluene): about 9.5 times

solubility (Solubility in THF): about 2.0 mg/ml
Compound: Cl[Si](Cl)(Cl)c1ccc(-c2ccc(-c3ccccc3)cc2)cc1 [P3-SiCl3, reference compound]

solubility (Solubility in toluene): about 1.0 mg/ml
Compound: Cl[Si](Cl)(Cl)c1ccc(-c2ccc(-c3ccc(-c4cccs4)s3)s2)s1 [Th4-SiCl3, reference compound]
